Measured values reported in patent US9809542B2, “Spiroheterocyclically substituted tetramic acid derivatives” (BAYER INTELLECTUAL PROPERTY GMBH, priority 2010, dated 2017).

Key:
Format in all cases: in vivo
[1] = tested on: cotton aphid (Aphis gossypii); assay: Aphis gossypii test; details: cotton plants; for Kill rate after 6 days: no additive
Description: Solvent: 7 parts by weight of dimethylformamide
Emulsifier: 2 parts by weight of alkylaryl polyglycol ether
To produce a suitable preparation of active compound, 1 part by weight of active compound is mixed with the stated amounts of solvent and emulsifier, and the concentrate is diluted with emulsifier-containing water to the desired concentration. For application with ammonium salts and penetrants (rapeseed oil methyl esters 500 EW) these are in each case added in a concentration of 1000 ppm of a.i. to the spray liquor.
Cotton plants (Gossypium hirsutum) which are heavily infested by the cotton aphid (Aphis gossypii) are sprayed to runoff point with the preparation of active compound at the desired concentration.
After the desired period of time, the kill in % is determined. 100% means that all aphids have been killed; 0% means that none of the aphids have been killed.

[2] = tested on: greenhouse red spidermite (Tetranychus urticae); assay: Tetranychus test OP-resistant (TETRUR spray treatment); details: application rate 100 g/ha, bean leaf discs, after 6 days
Description: Tetranychus Test OP-Resistant (TETRUR Spray Treatment)
Solvents: 78.0 parts by weight of acetone
• 1.5 parts by weight of dimethylformamide Emulsifier: 0.5 part by weight of alkylaryl polyglycol ether
To produce a suitable preparation of active compound, 1 part by weight of active compound is mixed with the stated amounts of solvents and emulsifier, and the concentrate is diluted with emulsifier-containing water to the desired concentration. Discs of bean leaves (Phaseolus vulgaris) which are infested by all stages of the greenhouse red spidermite (Tetranychus urticae) are sprayed with an active compound preparation of the desired concentration.
After 6 days, the effect in % is determined. 100% means that all spidermites have been killed; 0% means that none of the spidermites have been killed.

Echinocloa crus-galli = assay: Herbicidal pre-emergence action; details: pre-emergence method, 320 g of a.i./ha; about 3 weeks
Excerpt: (§1) 1. Herbicidal Pre-Emergence Action
(§2) • Seeds of monocotyledonous and dicotyledonous weed and crop plants are placed in sandy loam in wood fibre pots and covered with soil. The test compounds, formulated in the form of wettable powders (WP), are then, as aqueous suspension with a water application rate of 600 l/ha (converted), with 0.2% of wetting agent added, applied to the surface of the covering soil in various dosages. • After the treatment, the pots are placed in a greenhouse and kept under good growth conditions for the test plants. The visual assessment of the emergence damage on the test plants is carried out after a trial period of about 3 weeks by comparison with untreated controls (herbicidal effect in %: 100% effect=the plants have died, 0% effect=like control plants). • In addition to the compounds mentioned above, the following compounds, applied by the pre-emergence method at 320 g of a.i./ha, show an efficacy of 90% against Lolium multiflorum and Setaria viridis: I-1-a-1 • In addition to the compounds mentioned above, the following compounds, applied by the pre-emergence method at 320 g of a.i./ha, show an efficacy of 100% against Echinocloa crus-galli: I-a-2, I-b-1, I-b-2, I-c-2 2. Herbicidal Post-Emergence Action • Seeds of monocotyledonous and dicotyledonous weed and crop plants are placed in sandy loam in wood fibre pots, covered with soil and cultivated in a greenhouse under good growth conditions. 2-3 weeks after sowing, the test plants are treated at the one-leaf stage. The test compounds, formulated as wettable powders (WP), are, in various dosages at a water application rate of 600 l/ha (converted), with 0.2% of wetting agent added, sprayed onto the green parts of the plants. After the test plants have been kept in the greenhouse under optimum growth conditions for about 3 weeks, the effect of the preparations is rated visually in comparison to untreated controls (herbicidal effect in %: 100% effect=the plants have died, 0% effect=like control plants). • In addition to the compounds mentioned above, the following compounds, applied by the post-emergence method at 80 g/ha, show an efficacy of 90% against Echinocloa crus-galli and Lolium multiflorum: I-a-3, I-a-4, I-a-5.

Setaria viridis = assay: Herbicidal pre-emergence action; details: pre-emergence method, 320 g of a.i./ha; about 3 weeks
Excerpt: as §1, §2

Lolium multiflorum = assay: Herbicidal pre-emergence action; details: pre-emergence method, 320 g of a.i./ha; about 3 weeks
Excerpt: as §1, §2

SMILES	Kill rate after 6 days, +AS (1000 ppm) ([1]; 4 ppm)	Kill rate after 6 days, +RME (1000 ppm) ([1]; 4 ppm)	Kill rate after 6 days, +RME + AS (1000 ppm each) ([1]; 4 ppm)	Kill rate after 6 days ([1]; 4 ppm)	Kill rate after 6 days, +AS (1000 ppm) ([1]; 20 ppm)	Kill rate after 6 days, +RME (1000 ppm) ([1]; 20 ppm)	Kill rate after 6 days, +RME + AS (1000 ppm each) ([1]; 20 ppm)	Kill rate after 6 days ([1]; 20 ppm)	efficacy (effect in %, spidermites killed) [2]	efficacy (herbicidal effect in %) (Echinocloa crus-galli)	efficacy (herbicidal effect in %) (Setaria viridis)	efficacy (herbicidal effect in %) (Lolium multiflorum)
CCON1CCC2(CC1)NC(=O)C(c1c(C)ccc(-c3ccc(F)cc3)c1C)=C2O [I-a-2]	0%	0%	45%	0%	25%	20%	90%	0%	100%	100%	–	–
CON1CCC2(CC1)NC(=O)C(c1c(C)ccc(-c3ccc(F)cc3)c1C)=C2O [I-a-1]	–	–	–	–	40%	55%	100%	0%	–	–	90%	90%
